Measurements: ChEMBL document CHEMBL5620430, “Design, synthesis and biological evaluation of indazole derivatives as selective covalent inhibitors of FGFR4 in wild-type and gatekeeper mutants” (Eur J Med Chem, 2023)
Active and inactive are the calls of the source. No cut-off for these calls is given here.

Columns and labels:
[1] = Metabolic stability in liver microsomes (unknown origin) assessed as half life; assay type: ADME, Microsome
Huh-7 [2] = assay: cells; details: Homo sapiens
Description: Antiproliferative activity against human Huh-7 cells measured after 24 to 48 hrs by MTT assay

[3] = molecular target: Fibroblast growth factor receptor 4 (Homo sapiens, UniProt P22455)
Description: Inhibition of FGFR4 (445 to 753 residues) (unknown origin) expressed in Escherichia coli

[4] = Antiproliferative activity against human L02 cells measured after 24 to 48 hrs by MTT assay; assay type: toxicity, cell-based
[5] = molecular target: Fibroblast growth factor receptor 1 (Homo sapiens, UniProt P11362)
Description: Inhibition of FGFR1 (unknown origin)

BaF3 [6] = assay: cells; details: Mus musculus
Description: Antiproliferative activity against mouse BaF3 cells harbouring ETV6-FGFR4-V550L mutant measured after 24 to 48 hrs by MTT assay

BaF3 [7] = assay: cells; details: Mus musculus; remark: listed apart in the source
Description: Antiproliferative activity against mouse BaF3 cells harbouring ETV6-FGFR4-N535K mutant measured after 24 to 48 hrs by MTT assay

Hep 3B2 = assay: Antiproliferative activity against human Hep3B cells measured after 24 to 48 hrs by MTT assay; assay type: functional, cell-based
HepG2 = assay: Antiproliferative activity against human HepG2 cells measured after 24 to 48 hrs by MTT assay; assay type: functional, cell-based
Huh-7 [8] = assay: Inhibition of colony formation in human Huh-7 cells assessed as reduction in number of colonies at 270 nM measured for 12 days; assay type: functional, cell-based; details: time 12.0 day

Chain of Fibroblast growth factor receptor 1 (P11362 whole entry): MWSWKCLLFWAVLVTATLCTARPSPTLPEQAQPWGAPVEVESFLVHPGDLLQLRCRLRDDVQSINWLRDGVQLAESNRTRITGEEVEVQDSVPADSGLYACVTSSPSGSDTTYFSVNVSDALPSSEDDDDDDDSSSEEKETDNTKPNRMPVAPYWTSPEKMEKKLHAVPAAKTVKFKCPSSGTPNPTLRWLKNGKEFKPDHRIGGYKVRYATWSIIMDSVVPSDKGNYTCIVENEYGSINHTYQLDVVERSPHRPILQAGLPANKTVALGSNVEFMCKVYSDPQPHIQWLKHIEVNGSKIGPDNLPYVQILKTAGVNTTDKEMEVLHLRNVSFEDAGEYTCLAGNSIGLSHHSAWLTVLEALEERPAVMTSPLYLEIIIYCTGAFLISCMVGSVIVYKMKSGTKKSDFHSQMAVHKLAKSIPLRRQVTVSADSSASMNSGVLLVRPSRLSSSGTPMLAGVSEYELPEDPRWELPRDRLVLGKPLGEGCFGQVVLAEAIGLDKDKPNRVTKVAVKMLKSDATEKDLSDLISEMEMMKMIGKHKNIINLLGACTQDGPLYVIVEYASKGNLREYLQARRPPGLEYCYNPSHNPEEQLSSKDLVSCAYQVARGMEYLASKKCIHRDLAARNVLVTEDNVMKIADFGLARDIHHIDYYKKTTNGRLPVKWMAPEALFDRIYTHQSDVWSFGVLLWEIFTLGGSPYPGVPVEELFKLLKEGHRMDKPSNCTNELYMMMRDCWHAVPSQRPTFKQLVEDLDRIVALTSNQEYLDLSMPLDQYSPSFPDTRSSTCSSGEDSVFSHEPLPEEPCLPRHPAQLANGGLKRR
Chain of Fibroblast growth factor receptor 4 (P22455 whole entry): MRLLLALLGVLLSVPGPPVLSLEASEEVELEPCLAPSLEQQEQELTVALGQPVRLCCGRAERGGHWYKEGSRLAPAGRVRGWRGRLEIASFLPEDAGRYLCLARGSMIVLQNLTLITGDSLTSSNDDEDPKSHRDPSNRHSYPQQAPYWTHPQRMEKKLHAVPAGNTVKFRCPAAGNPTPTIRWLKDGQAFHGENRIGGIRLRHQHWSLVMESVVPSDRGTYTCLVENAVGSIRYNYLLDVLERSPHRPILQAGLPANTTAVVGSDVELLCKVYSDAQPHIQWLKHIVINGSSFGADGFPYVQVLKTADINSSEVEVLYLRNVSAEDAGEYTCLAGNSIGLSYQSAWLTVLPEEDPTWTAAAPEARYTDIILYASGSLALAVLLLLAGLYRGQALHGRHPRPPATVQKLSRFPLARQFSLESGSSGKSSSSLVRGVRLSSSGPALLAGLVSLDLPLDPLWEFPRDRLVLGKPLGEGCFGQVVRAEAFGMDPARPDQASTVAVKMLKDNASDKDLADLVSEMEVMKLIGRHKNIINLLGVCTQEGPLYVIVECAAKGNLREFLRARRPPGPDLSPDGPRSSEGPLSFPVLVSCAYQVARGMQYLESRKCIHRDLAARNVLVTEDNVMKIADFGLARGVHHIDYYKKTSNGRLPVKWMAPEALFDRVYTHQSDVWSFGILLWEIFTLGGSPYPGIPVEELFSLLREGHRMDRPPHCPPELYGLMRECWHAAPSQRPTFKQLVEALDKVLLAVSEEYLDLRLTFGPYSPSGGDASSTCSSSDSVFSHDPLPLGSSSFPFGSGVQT

SMILES	IC50 (Huh-7 [2]) [µM]	IC50 [3] [µM]	IC50 [5] [µM]	further results
C=CC(=O)Nc1cc2c(cc1-c1n[nH]c3ccc(O[C@H](C)c4c(Cl)cncc4Cl)cc13)CCN(CCO)C2	0.03	0.0026	> 3	half-life [1]: 3.04 min; IC50 [4]: > 10 µM; IC50 (BaF3 [6]): 0.001 µM
C=CC(=O)Nc1ccccc1-c1n[nH]c2ccc(OCc3ccncc3)cc12	> 3	0.243		
C=CC(=O)Nc1cc2c(cc1-c1n[nH]c3ccc(O[C@H](C)c4c(Cl)cncc4Cl)cc13)CN(C)CC2	0.132	0.0031	> 3	
C=CC(=O)Nc1cc(N2CCN(C)CC2)ccc1-c1n[nH]c2ccc(O[C@H](C)c3c(Cl)cncc3Cl)cc12	0.012	0.0018	> 3	half-life [1]: 3.8 min; IC50 [4]: 3.94 µM; IC50 (BaF3 [6]): 0.002 µM
C=CC(=O)Nc1cc2c(cc1-c1n[nH]c3ccc(O[C@H](C)c4c(Cl)cncc4Cl)cc13)CCN(CCOC)C2	0.054	0.0025	> 3	
C=CC(=O)N[C@H]1CCOC[C@H]1Nc1ncc2cc(-c3c(Cl)c(OC)cc(OC)c3Cl)ccc2n1 [FISOGATINIB]		0.0039	1.03	IC50 (BaF3 [7]): 0.528 µM; IC50 (Hep 3B2): 0.046 µM; IC50 [4]: > 10 µM; IC50 (HepG2): 4.43 µM; inhibition (Huh-7 [8]): Active; IC50 (BaF3 [6]): 0.396 µM
C=CC(=O)Nc1cc2c(cc1-c1n[nH]c3ccc(O[C@H](C)c4c(Cl)cncc4Cl)cc13)CN(CCOC)CC2	0.753	0.0097	> 3	
C=CC(=O)Nc1ccc(N2CCOCC2)cc1-c1n[nH]c2ccc(O[C@H](C)c3c(Cl)cncc3Cl)cc12	0.02	0.0025	> 3	half-life [1]: 2.73 min; IC50 [4]: > 10 µM; IC50 (BaF3 [6]): 0.003 µM
C=CC(=O)Nc1cc2c(cc1-c1n[nH]c3ccc(O[C@H](C)c4c(Cl)cncc4Cl)cc13)CN(CCOC)C2	0.193	0.0032	> 3	
C=CC(=O)Nc1cc2c(cc1-c1n[nH]c3ccc(O[C@H](C)c4c(Cl)cncc4Cl)cc13)CN(CCO)C2	0.067	0.0019	> 3	
C=CC(=O)Nc1ccccc1-c1n[nH]c2ccc(O[C@H](C)c3c(Cl)cncc3Cl)cc12	0.08		> 3	
C=CC(=O)Nc1ccccc1-c1n[nH]c2ccc(OCc3c(Cl)cccc3Cl)cc12	> 3	0.764		
C=CC(=O)Nc1ccc(N2CCN(C)CC2)cc1-c1n[nH]c2ccc(O[C@H](C)c3c(Cl)cncc3Cl)cc12	0.015	0.0021	> 3	half-life [1]: 2.41 min; IC50 [4]: 4.28 µM; IC50 (BaF3 [6]): 0.001 µM
C=CC(=O)Nc1cc(N2CCOCC2)ccc1-c1n[nH]c2ccc(O[C@H](C)c3c(Cl)cncc3Cl)cc12	0.017	0.0022	> 3	half-life [1]: 1.37 min; IC50 [4]: > 10 µM; IC50 (BaF3 [6]): 0.002 µM
C=CC(=O)Nc1ccccc1-c1n[nH]c2ccc(OCc3cccnc3)cc12	> 3	0.083	> 3	
C=CC(=O)Nc1ccccc1-c1n[nH]c2ccc(OC(C)c3ccncc3)cc12 (stereo not drawn)	> 3	0.169	> 3	
C=CC(=O)Nc1ccccc1-c1n[nH]c2ccc(O[C@@H](C)c3c(Cl)cncc3Cl)cc12	> 3			
C=CC(=O)Nc1cc2c(cc1-c1n[nH]c3ccc(O[C@H](C)c4c(Cl)cncc4Cl)cc13)CN(C(=O)OC(C)(C)C)C2	0.859		> 3	
C=CC(=O)Nc1cc2c(cc1-c1n[nH]c3ccc(O[C@H](C)c4c(Cl)cncc4Cl)cc13)CN(S(C)(=O)=O)C2	0.048	0.0035	> 3	
C=CC(=O)Nc1ccccc1-c1n[nH]c2ccc(OC(C)c3c(F)cncc3F)cc12 (stereo not drawn)	1.27	0.042	> 3	
C=CC(=O)Nc1cccc(-c2n[nH]c3ccc(O[C@H](C)c4c(Cl)cncc4Cl)cc23)c1	2.44	1.2	> 3	
C=CC(=O)Nc1ccccc1-c1n[nH]c2ccc(OCc3ccccn3)cc12	> 3	0.481		
C=CC(=O)Nc1ccccc1-c1n[nH]c2ccc(OCc3c(Cl)cncc3Cl)cc12	0.754	0.027	> 3	
C=CC(=O)Nc1cc(F)ccc1-c1n[nH]c2ccc(O[C@H](C)c3c(Cl)cncc3Cl)cc12	0.19	0.0035	> 3	
C=CC(=O)Nc1ccccc1-c1n[nH]c2ccc(OC(C)c3c(Cl)cncc3Cl)cc12 (racemic)	0.221		> 3	
C=CC(=O)Nc1cc2c(cc1-c1n[nH]c3ccc(O[C@H](C)c4c(Cl)cncc4Cl)cc13)CN(CCO)CC2	0.275	0.0062	> 3	
C=CC(=O)Nc1ccc(F)cc1-c1n[nH]c2ccc(O[C@H](C)c3c(Cl)cncc3Cl)cc12	0.324	0.0032	> 3	
C=CC(=O)Nc1ccccc1-c1n[nH]c2ccc(OC(C)c3c(Cl)cccc3Cl)cc12 (stereo not drawn)	> 3	0.252		
C=CC(=O)Nc1cc2c(cc1-c1n[nH]c3ccc(O[C@H](C)c4c(Cl)cncc4Cl)cc13)CN(C)C2	0.05	0.0027	> 3	
